In patent publication US12180518B2, “RNA polymerase variants for co-transcriptional capping” (priority 2019, dated 2024):

What was measured:
Assay type in all cases: biochemical, bacteriophage T7
[1] = target: T7 RNA polymerase variant G47A/D653W+C-terminal G (D653W), SEQ ID NO: 59 (Escherichia phage T7, UniProt P00573, D653W/G47A); assay: GAG/e6A/m6A/GGAG cap analog incorporation in IVT reactions, LC-MS % capped RNA (D653W)
Method: (§1) In vitro transcription reactions were performed using DNA template, one of three cap analogs (GAG cap, m6A cap, and e6A cap) at varying concentrations, and (1) a G47A+C-terminal G RNA polymerase variant (control polymerase variant; G47A+C-terminal G), (2) a G47A/D506W+C-terminal G RNA polymerase variant (D506W), (3) a G47A/S628W+C-terminal G RNA polymerase variant (S628W), (4) a G47A/D653W+C-terminal G RNA polymerase variant (D653W), and (5) a G47A/P657W+C-terminal G RNA polymerase variant (P657W). IVT reactions using the m6A and e6A cap analogs were incorporated using a DNA template that encodes for a 5′A followed by G. Following the IVT reactions, each experiment was subjected to LC-MS to determine the % capped RNA (i.e., percent of transcribed RNA comprising a cap).
(§2) Conversely, even at 5 mM e6A, the control variant provided ˜40% of total RNA with incorporated e6A.
(§3) Conversely, even at 5 mM m6A, the control variant provided less than 30% of total RNA with incorporated m6A.
Conversely, even at 7.5 mM GGAG tetranuc, the control variant provided less than 70% of total RNA with incorporated GGAG.

[2] = target: T7 RNA polymerase variant G47A/D506W+C-terminal G (D506W), SEQ ID NO: 57 (Escherichia phage T7, UniProt P00573, D506W/G47A); assay: GAG/e6A/m6A cap analog incorporation in IVT reactions, LC-MS % capped RNA (D506W); conditions: 5 mM of each NTP
Sequence of T7 RNA polymerase variant G47A/D506W+C-terminal G (D506W), SEQ ID NO: 57 (P00573 other isoform, or with tags, fused parts or gaps G47A/D506W): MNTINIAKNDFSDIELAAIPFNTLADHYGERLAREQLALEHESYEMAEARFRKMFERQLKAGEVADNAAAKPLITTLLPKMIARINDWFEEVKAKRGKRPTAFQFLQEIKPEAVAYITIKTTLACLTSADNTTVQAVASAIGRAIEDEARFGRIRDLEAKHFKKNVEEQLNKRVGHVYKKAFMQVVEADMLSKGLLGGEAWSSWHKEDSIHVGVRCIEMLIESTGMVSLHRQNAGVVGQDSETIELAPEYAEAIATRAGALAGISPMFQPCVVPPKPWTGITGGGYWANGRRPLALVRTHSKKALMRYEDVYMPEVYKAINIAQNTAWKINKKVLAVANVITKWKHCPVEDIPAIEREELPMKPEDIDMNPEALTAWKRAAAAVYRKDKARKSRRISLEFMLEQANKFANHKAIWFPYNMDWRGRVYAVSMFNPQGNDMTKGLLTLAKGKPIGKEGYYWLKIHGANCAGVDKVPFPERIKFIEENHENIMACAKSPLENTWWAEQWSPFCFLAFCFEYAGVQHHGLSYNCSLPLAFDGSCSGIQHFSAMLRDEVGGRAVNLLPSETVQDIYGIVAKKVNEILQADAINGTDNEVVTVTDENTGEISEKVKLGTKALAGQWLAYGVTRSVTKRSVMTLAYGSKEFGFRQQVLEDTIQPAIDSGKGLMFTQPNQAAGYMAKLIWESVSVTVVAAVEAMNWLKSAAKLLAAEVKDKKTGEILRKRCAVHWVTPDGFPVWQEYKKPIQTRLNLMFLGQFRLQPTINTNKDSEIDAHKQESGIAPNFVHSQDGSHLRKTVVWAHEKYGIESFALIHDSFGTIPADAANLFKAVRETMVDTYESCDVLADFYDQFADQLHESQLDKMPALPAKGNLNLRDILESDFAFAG
Method: as §1, §2, §3

[3] = target: T7 RNA polymerase variant G47A/P657W+C-terminal G (P657W), SEQ ID NO: 60 (Escherichia phage T7, UniProt P00573, G47A/P657W); assay: GAG/e6A/m6A cap analog incorporation in IVT reactions, LC-MS % capped RNA (P657W); conditions: 5 mM of each NTP
Sequence of T7 RNA polymerase variant G47A/P657W+C-terminal G (P657W), SEQ ID NO: 60 (P00573 other isoform, or with tags, fused parts or gaps G47A/P657W): as the sequence (P00573 other isoform, or with tags, fused parts or gaps G47A/D506W) above, with W506D, P657W counted along it
Method: as §1, §2, §3

[4] = target: T7 RNA polymerase variant G47A/S628W+C-terminal G (S628W), SEQ ID NO: 58 (Escherichia phage T7, UniProt P00573, G47A/S628W); assay: GAG/e6A/m6A cap analog incorporation in IVT reactions, LC-MS % capped RNA (S628W); conditions: 5 mM of each NTP
Sequence of T7 RNA polymerase variant G47A/S628W+C-terminal G (S628W), SEQ ID NO: 58 (P00573 other isoform, or with tags, fused parts or gaps G47A/S628W): as the sequence (P00573 other isoform, or with tags, fused parts or gaps G47A/D506W) above, with W506D, S628W counted along it
Method: as §1, §2, §3

[5] = EC50 = concentration for 50% cap incorporation, vs G47A+C-terminal G

Sequence of T7 RNA polymerase variant G47A/D653W+C-terminal G (D653W), SEQ ID NO: 59 (P00573 other isoform, or with tags, fused parts or gaps G47A/D653W): as the sequence (P00573 other isoform, or with tags, fused parts or gaps G47A/D506W) above, with W506D, D653W counted along it

CNc1ncnc2c1ncn2[C@@H]1O[C@H](COP(=O)(O)OP(=O)(O)OP(=O)([O-])OC[C@H]2O[C@@H](n3c[n+](C)c4c(=O)[nH]c(N)nc43)[C@H](O)[C@@H]2O)[C@@H](OP(=O)(O)OC[C@H]2O[C@@H](n3cnc4c(=O)[nH]c(N)nc43)[C@H](O)[C@@H]2O)[C@H]1OC [m6A cap, m^7Gpppm^6A2′OmepG]
effective concentration of m6A cap analog for cap incorporation, relative to control variant (in words) ([1]; 5 mM of each NTP, FIGS. 6A-6D): lesser effective concentrations | effective concentration of m6A cap analog for cap incorporation, relative to control variant (in words) ([2]; FIGS. 6A-6D): lesser effective concentrations | effective concentration of m6A cap analog for cap incorporation, relative to control variant (in words) ([3]; FIGS. 6A-6D): lesser effective concentrations | effective concentration of m6A cap analog for cap incorporation, relative to control variant (in words) ([4]; FIGS. 6A-6D): lesser effective concentrations

CCNc1ncnc2c1ncn2[C@@H]1O[C@H](COP(=O)(O)OP(=O)(O)OP(=O)([O-])OC[C@H]2O[C@@H](n3c[n+](C)c4c(=O)[nH]c(N)nc43)[C@H](O)[C@@H]2O)[C@@H](OP(=O)(O)OC[C@H]2O[C@@H](n3cnc4c(=O)[nH]c(N)nc43)[C@H](O)[C@@H]2O)[C@H]1OC [e6A cap, m^7Gpppe^6A2′OmepG]
effective concentration of e6A cap analog for cap incorporation, relative to control variant (in words) ([1]; 5 mM of each NTP, FIGS. 5A-5D): lesser effective concentrations | effective concentration of e6A cap analog for cap incorporation, relative to control variant (in words) ([2]; FIGS. 5A-5D): lesser effective concentrations | effective concentration of e6A cap analog for cap incorporation, relative to control variant (in words) ([3]; FIGS. 5A-5D): lesser effective concentrations | effective concentration of e6A cap analog for cap incorporation, relative to control variant (in words) ([4]; FIGS. 5A-5D): lesser effective concentrations

CO[C@@H]1[C@H](OP(=O)(O)OC[C@H]2O[C@@H](n3cnc4c(=O)[nH]c(N)nc43)[C@H](O)[C@@H]2O)[C@@H](COP(=O)(O)OP(=O)(O)OP(=O)([O-])OC[C@H]2O[C@@H](n3c[n+](C)c4c(=O)[nH]c(N)nc43)[C@H](O)[C@@H]2O)O[C@H]1n1cnc2c(N)ncnc21 [GAG cap]
EC50 for GAG cap incorporation, relative to the control variant (in words) ([1]; 5 mM of each NTP, vs G47A+C-terminal G): significant improvement | fold improvement (reduction) in EC50 for GAG cap incorporation, relative to the control variant ([1]; 7.5 mM of each NTP, FIG. 4E, vs G47A+C-terminal G): 12.3 fold | fold improvement (reduction) in EC50 for GAG cap incorporation, relative to the control variant [2, 5]: 1.28 fold | fold improvement (reduction) in EC50 for GAG cap incorporation, relative to the control variant [3, 5]: 2.27 fold | fold improvement (reduction) in EC50 for GAG cap incorporation, relative to the control variant [4, 5]: 1.45 fold

CO[C@@H]1[C@H](OP(=O)(O)OC[C@H]2O[C@@H](n3cnc4c(N)ncnc43)[C@H](O)[C@@H]2OP(=O)(O)OC[C@H]2O[C@@H](n3cnc4c(=O)[nH]c(N)nc43)[C@H](O)[C@@H]2O)[C@@H](COP(=O)(O)OP(=O)(O)OP(=O)([O-])OC[C@H]2O[C@@H](n3c[n+](C)c4c(=O)[nH]c(N)nc43)[C@H](O)[C@@H]2O)O[C@H]1n1cnc2c(=O)[nH]c(N)nc21 [GGAG tetranuc]
effective concentration of GGAG tetranuc cap analog for cap incorporation, relative to control variant (in words) ([1]; 7.5 mM of each NTP, FIG. 7): lesser effective concentrations
